Measured values as given in ChEMBL document CHEMBL3102771, “Regioselective synthesis of 3-benzyl substituted pyrimidino chromen-2-ones and evaluation of anti-microbial and anti-biofilm activities” (2014).
≈ marks a conversion by molar mass, not a printed value. Calls of active or inactive are those of the source. The rule behind the calls is not given here.

Columns and labels:
Type in all cases: functional
Pseudomonas aeruginosa [1] = experiment: Antibiofilm activity against Pseudomonas aeruginosa MTCC 2453 after 24 hrs by crystal violet staining technique
Staphylococcus aureus [2] = experiment: Antibiofilm activity against Staphylococcus aureus MTCC 96 after 24 hrs by crystal violet staining technique
Staphylococcus aureus [3] = experiment: Antibiofilm activity against Staphylococcus aureus MLS-16 MTCC 2940 after 24 hrs by crystal violet staining technique
Bacillus subtilis = experiment: Antimicrobial activity against Bacillus subtilis MTCC 121 assessed as growth inhibition after 24 hrs by well diffusion method; conditions: MTCC 121, 24 h
Pseudomonas aeruginosa [4] = experiment: Antimicrobial activity against Pseudomonas aeruginosa MTCC 2453 assessed as growth inhibition after 24 hrs by well diffusion method; conditions: MTCC 2453, 24 h
Micrococcus luteus = experiment: Antimicrobial activity against Micrococcus luteus MTCC 2470 assessed as growth inhibition after 24 hrs by well diffusion method; conditions: MTCC 2470, 24 h
Staphylococcus aureus [5] = experiment: Antimicrobial activity against Staphylococcus aureus MLS-16 MTCC 2940 assessed as growth inhibition after 24 hrs by well diffusion method; conditions: MLS-16 MTCC 2940, 24 h
Staphylococcus aureus [6] = experiment: Antimicrobial activity against Staphylococcus aureus MTCC 96 assessed as growth inhibition after 24 hrs by well diffusion method; conditions: MTCC 96, 24 h

Row | SMILES | MBEC (Pseudomonas aeruginosa [1]) | MBEC (Staphylococcus aureus [2]) | MBEC (Staphylococcus aureus [3]) | MIC (Bacillus subtilis) [µg/mL] | MIC (Pseudomonas aeruginosa [4]) [µg/mL] | MIC (Micrococcus luteus) [µg/mL] | MIC (Staphylococcus aureus [5]) [µg/mL] | MIC (Staphylococcus aureus [6]) [µg/mL]
1 | Cn1c(N)c(C(c2cn(-c3ccccc3)nc2-c2ccc(Cl)cc2)c2c(O)c3cc(F)ccc3oc2=O)c(=O)n(C)c1=O (stereo unspecified) | inactive | 4 µg/mL | inactive | 1.17 (≈ 1.95 µM) | > 150 | 0.58 (≈ 0.967 µM) | > 150 | 1.17 (≈ 1.95 µM)
2 | COc1ccc(C(c2c(O)c3ccc4ccccc4c3oc2=O)c2c(N)n(C)c(=O)n(C)c2=O)cc1OC (stereo unspecified) |  |  |  | 18.8 (≈ 36.4 µM) | > 150 | > 150 | 9.37 (≈ 18.2 µM) | > 150
3 | CCCC(c1c(O)c2cc(C)ccc2oc1=O)c1c(N)n(C)c(=O)n(C)c1=O (stereo unspecified) |  |  |  | 18.8 (≈ 48.6 µM) | > 150 | 75 (≈ 195 µM) | 75 (≈ 195 µM) | 75 (≈ 195 µM)
4 | Cc1cc(O)c(C(c2c(N)n(C)c(=O)n(C)c2=O)C2CCCCC2)c(=O)o1 (stereo unspecified) |  |  |  | 150 (≈ 400 µM) | > 150 | > 150 | > 150 | > 150
5 | Cn1c(N)c(C(c2ccc(C(F)(F)F)cc2)c2c(O)c3ccc4ccccc4c3oc2=O)c(=O)n(C)c1=O (stereo unspecified) | inactive | 10 µg/mL | 10 µg/mL | 9.37 (≈ 17.9 µM) | > 150 | 18.8 (≈ 35.8 µM) | 2.34 (≈ 4.47 µM) | 9.37 (≈ 17.9 µM)
6 | Cc1cc(O)c(C(c2ccc(C(F)(F)F)cc2)c2c(N)n(C)c(=O)n(C)c2=O)c(=O)o1 (stereo unspecified) |  |  |  | 150 (≈ 343 µM) | > 150 | > 150 | > 150 | > 150
7 | Cn1c(N)c(C(c2cn(-c3ccccc3)nc2-c2ccc([N+](=O)[O-])cc2)c2c(O)c3cc(F)ccc3oc2=O)c(=O)n(C)c1=O (stereo unspecified) | inactive | 10 µg/mL | inactive | 2.34 (≈ 3.83 µM) | > 150 | 2.34 (≈ 3.83 µM) | > 150 | 4.68 (≈ 7.67 µM)
8 | Cc1ccc(-c2nn(-c3ccccc3)cc2C(c2c(O)c3cc(F)ccc3oc2=O)c2c(N)n(C)c(=O)n(C)c2=O)cc1 (stereo unspecified) | inactive | 4 µg/mL | inactive | 1.17 (≈ 2.02 µM) | > 150 | 0.58 (≈ 1 µM) | > 150 | 2.34 (≈ 4.04 µM)
9 | Cc1ccc2oc(=O)c(C(c3ccc(C(C)C)cc3)c3c(N)n(C)c(=O)n(C)c3=O)c(O)c2c1 (stereo unspecified) |  |  |  | 9.37 (≈ 20.3 µM) | > 150 | 75 (≈ 163 µM) | 150 (≈ 325 µM) | > 150
10 | COc1ccc(C(c2c(O)c3cc(C)ccc3oc2=O)c2c(N)n(C)c(=O)n(C)c2=O)cc1 (stereo unspecified) |  |  |  | 75 (≈ 167 µM) | > 150 | 75 (≈ 167 µM) | 75 (≈ 167 µM) | > 150
11 | Cc1ccc2oc(=O)c(C(c3ccc(C#N)cc3)c3c(N)n(C)c(=O)n(C)c3=O)c(O)c2c1 (stereo unspecified) |  |  |  | > 150 | > 150 | > 150 | 150 (≈ 337 µM) | > 150
12 | Cn1c(N)c(C(c2cn(-c3ccccc3)nc2-c2ccccc2)c2c(O)c3cc(F)ccc3oc2=O)c(=O)n(C)c1=O (stereo unspecified) | inactive | 10 µg/mL | 4 µg/mL | 4.68 (≈ 8.27 µM) | > 150 | 2.34 (≈ 4.14 µM) | 1.17 (≈ 2.07 µM) | 2.34 (≈ 4.14 µM)
13 | COc1ccc(-c2nn(-c3ccccc3)cc2C(c2c(O)c3cc(F)ccc3oc2=O)c2c(N)n(C)c(=O)n(C)c2=O)cc1 (stereo unspecified) | inactive | 10 µg/mL | inactive | 2.34 (≈ 3.93 µM) | > 150 | 2.34 (≈ 3.93 µM) | > 150 | 4.68 (≈ 7.86 µM)
14 | COc1cc(C(c2c(O)c3cc(F)ccc3oc2=O)c2c(N)n(C)c(=O)n(C)c2=O)ccc1O (stereo unspecified) | inactive | inactive | 40 µg/mL | 9.37 (≈ 20 µM) | > 150 | 9.37 (≈ 20 µM) | 37.5 (≈ 79.9 µM) | 75 (≈ 160 µM)
15 | COc1cc(C(c2c(O)c3cc(F)ccc3oc2=O)c2c(N)n(C)c(=O)n(C)c2=O)cc(OC)c1O (stereo unspecified) |  |  |  | > 150 | > 150 | 18.8 (≈ 37.5 µM) | 37.5 (≈ 75.1 µM) | > 150
16 | O=C(O)c1cn(C2CC2)c2cc(N3CCNCC3)c(F)cc2c1=O [CIPROFLOXACIN] | 4 µg/mL | 4 µg/mL | 4 µg/mL | 0.58 (≈ 1.75 µM) | 0.58 (≈ 1.75 µM) | 0.58 (≈ 1.75 µM) | 0.58 (≈ 1.75 µM) | 0.58 (≈ 1.75 µM)
17 | Cc1ccc2oc(=O)c(C(c3cn(-c4ccccc4)nc3-c3ccccc3)c3c(N)n(C)c(=O)n(C)c3=O)c(O)c2c1 (stereo unspecified) | inactive | 10 µg/mL | inactive | 2.34 (≈ 4.17 µM) | > 150 | 2.34 (≈ 4.17 µM) | > 150 | 4.68 (≈ 8.33 µM)
18 | Cc1ccc2oc(=O)c(C(c3ccc(C(F)(F)F)cc3)c3c(N)n(C)c(=O)n(C)c3=O)c(O)c2c1 (stereo unspecified) | 20 µg/mL | inactive | 20 µg/mL | 9.37 (≈ 19.2 µM) | 9.37 (≈ 19.2 µM) | 18.8 (≈ 38.5 µM) | 18.8 (≈ 38.5 µM) | > 150
19 | Cn1c(N)c(C(c2ccc(C#N)cc2)c2c(O)c3ccc4ccccc4c3oc2=O)c(=O)n(C)c1=O (stereo unspecified) |  |  |  | 37.5 (≈ 78 µM) | > 150 | 150 (≈ 312 µM) | 37.5 (≈ 78 µM) | > 150
20 | COc1ccc(-c2nn(-c3ccccc3)cc2C(c2c(O)c3cc(C)ccc3oc2=O)c2c(N)n(C)c(=O)n(C)c2=O)cc1 (stereo unspecified) | inactive | 10 µg/mL | inactive | 2.34 (≈ 3.96 µM) | > 150 | 2.34 (≈ 3.96 µM) | > 150 | 4.68 (≈ 7.91 µM)
21 | Cn1c(N)c(C(c2ccc(C#N)cc2)c2c(O)c3cc(F)ccc3oc2=O)c(=O)n(C)c1=O (stereo unspecified) |  |  |  | 75 (≈ 167 µM) | > 150 | > 150 | 75 (≈ 167 µM) | 75 (≈ 167 µM)
22 | Cc1ccc2oc(=O)c(C(c3ccc(F)cc3)c3c(N)n(C)c(=O)n(C)c3=O)c(O)c2c1 (stereo unspecified) |  |  |  | 37.5 (≈ 85.7 µM) | > 150 | > 150 | 150 (≈ 343 µM) | > 150
23 | CCOc1cc(C(c2c(O)c3cc(C)ccc3oc2=O)c2c(N)n(C)c(=O)n(C)c2=O)ccc1O (stereo unspecified) | 20 µg/mL | inactive | 10 µg/mL | 9.37 (≈ 19.5 µM) | 9.37 (≈ 19.5 µM) | 9.37 (≈ 19.5 µM) | 9.37 (≈ 19.5 µM) | 75 (≈ 156 µM)
